Reference: US4731370A, “Pyridyl ester containing 1,4-dihydropyridine derivatives and salts thereof and pharmaceutical composition containing the same” (Toyama Chemical Co., Ltd., priority 1984, dated 1988)
Structures can show the parent of a compound that is named as a salt. Where two headings read alike, the source gives them in different places.

What was measured:
[1] = system: vertebral artery blood flow of a dog; test: Vertebral artery blood flow increasing activity; type: in vivo, dog (mongrel); details: i.v., amount with same activity as 1 mg/kg (i.v.) papaverine hydrochloride, ratio to papaverine hydrochloride
Description: (§1) The compounds of this invention to be tested were used in the form of a hydrochloride.
The vertebral artery blood flow of a dog (mongrel, 12-22 kg, 2-3 heads per group) anesthetized with pentobarbital sodium (30 mg/kg, i.v.) was measured by means of an electromagnetic flow meter (MFV-2100 manufactured by Nihon Kohden Kogyo).
The test compounds 1, 3 and 10 were adjusted to a concentration of 1 mg/ml with distilled water, and then diluted with a saline solution to the desired concentrations, after which the thus diluted solutions were intravenously administered, and the test compounds 12, 15, 18, 19, 20, 24, 29, 30, 32 and 33 were formed into solutions in the same manner as in Item 1 above and then intravenously administered.

[2] = system: mouse pulmonary infraction model; test: Antithrombosis activity, mouse pulmonary infraction model, paralytic time-shortening (0.15 ml epinephrine/collagen); type: in vivo, mouse (ICR strain); details: 1 h, oral, challenge after one hour, 10 mice, read-out: Paralytic time-shortening percentage
Description: as §1
Comparing the paralytic time of the control group, the paralytic time-shortening percentage due to the compound to be tested was determined.
(§2) The test compounds shown in Table 4 were adjusted to the desired concentrations with water, and the test compounds shown in Table 5 were adjusted to a concentration of 5 mg/ml with an aqueous solution containing 10% by volume of each of dimethyl sulfoxide and Cremophor, and then diluted with water to the desired concentrations.

[3] = system: Thromboxane-Synthesizing Enzyme; test: Thromboxane-synthesizing enzyme-inhibitory activity (MDA production in platelet-rich plasma after oral dosing); type: in vivo, rat (Wistar strain); details: rat, 3 mg/kg, blood after one hour
Description: as §1
To a rat (Wistar strain, male, 300-350 g, 4 heads per group) which had been starved overnight was orally administered a test compound solution, and blood was collected from the abdominal aorta using citric acid after one hour. Two milliliters of a 1×10^9 /ml platelet-rich plasma (PRP) was preincubated at 37° C. for 2 minutes. Subsequently, 0.1 ml of 10 mM sodium archidonate was added, and the resulting mixture was subjected to reaction for 6 minutes, after which indomethacin was added thereto to terminate the reaction. The reaction mixture was subjected to deproteinization treatment and reacted with thiobarbituric acid (TBA) reagent, after which the reaction mixture was subjected to extraction with 3 ml of n-butanol. The resulting extract was subjected to colorimetry (λ=532 nm) to determine the amount of malondialdehyde (MDA) produced. As to the platelet-poor plasma (PPP) obtained from the same rat as above, the same procedure as above was repeated to determine the amount of MDA produced, and the difference between the two is indicated as MDA value. Comparing with the MDA values of the control group, the MDA production-inhibition (%) was determined.
as §2, with “1-9” for “shown in Table 4”, “water” for “water,”, “11-33 and nicardipine” for “shown in Table 5”, “10%” for “10% by volume”, “Cremophor” for “Cremophor,”

[4] = system: coronary vessel (isolated guinea pig heart); test: Coronary vasodilating activity (isolated perfused guinea pig heart, coronary effluent); set-up: species or system guinea pig (Hartley strain); details: Langendorff perfusion, 0.1 ml into aorta, hydrochloride
Description: as §1
The heart of a guinea pig (Hartley strain, male, 500-700 g, 3 heads per group) was isolated and set in the Landendorff perfusing apparatus. About 0.5% defibrinated blood was fed to the apparatus, and the Krebs bicarbonate solution, into which a mixed gas consisting of 95% of O2 and 5% of CO2 had been bubbled was perfused over the heart, after which a 1 mg/ml solution of the test compound in an aqueous solution containing 10% by volume of dimethylsulfoxide and 10% of polyoxyethylfatty acid glyceride [Cremophor EL manufactured by Sigma] was prepared, diluted with a saline solution to the desired concentration, and then administered into the heart in an amount of 0.1 ml through the rubber tube attached to the cannula inserted retrogressively into the aorta. The vasodilating activity was determined by measuring the amount of the solution effluent from the coronary vessel after passing through the aorta by means of an electric drop counter (universal drop counter manufactured by Natsume Seisakusho) and indicated as ED50 value which is the amount necessary for the amount of the effluent solution to increase 50% as compared with those before addition of the test compound.

[5] = system: mouse pulmonary infraction model; test: Antithrombosis activity, mouse pulmonary infraction model, prevention of death and paralysis (0.10 ml epinephrine/collagen); type: in vivo, mouse (ICR strain); details: 1 h, read-out: Preventive percentage of death + paralysis for 10 minutes or more
Description: as §1
According to the G. DiMinno and M. J. Silver method [J. Pharmacol. Exp. Therap., 225 (1) 57-60 (1983)], a solution of the compound to be tested was orally administered to a mouse (ICR strain, male, 4 weeks old), and 0.15 ml of a mixed solution of epinephrine (100 μM) and collagen (150 μg/ml) was intravenously administered to the mouse after one hour, after which the paralytic time was measured. Comparing the paralytic time of the control group, the paralytic time-shortening percentage due to the compound to be tested was determined. The results obtained are shown in Table 4, in which the case where the paralytic time was 15 minutes was calculated as death.
Moreover, the same experiment was repeated, except that 0.10 ml of a mixed solution of epinephrine (100 μM) and collagen (150 μg/ml) was intravenously administered to the mouse and the effect of preventing the appearance of death and a case where the paralytic time was 10 minutes or more was checked and the results thereof are shown in Table 5.
as §2

[6] = Acute toxicity, intravenous, mice; details: mouse, in vivo, mice (ICR, male, 4 weeks old, 5 per group)
[7] = mouse, oral, 10 mg/kg, challenge after one hour, control 25.7%

`COC(=O)C1=C(C)NC(C)=C(C(=O)OCCN(C)Cc2ccccc2)C1c1cccc([N+](=O)[O-])c1` (stereo not drawn) [Nicardipine, 3-[2-(N-benzyl-N-methylamino)ethyl]5-methyl 2,6-dimethyl-4-(3-nitrophenyl)-1,4-dihydropyridine-3,5-dicarboxylate hydrochloride, reference compound] showed an Effect ratio [1] of 220, an inhibition in vivo at 10 mg/kg [2] of 6.3% and an MDA production-inhibition [3] of 2.7%. For the same compound, the “ED50 (amount necessary for the amount of the effluent solution to increase 50%)” value [4] was 0.042 μg/i.c and the responders at 10 mg/kg ([5]; Mus musculus, po) was 0%.
Work on `C/C(=C\c1ccc(Cc2cccnc2)cc1)C(=O)O` [OKY-1581, Sodium (E)-3-[4-(pyridin-3-ylmethyl)phenyl]-2-methylpropenoate, reference compound] yielded an inhibition in vivo at 300 mg/kg ([2]; 300 mg/kg) of 9.5% and a responders at 30 mg/kg ([5]; Mus musculus, po) of 10%.
With `CC1=C(C(=O)OCCN(C)C/C(C)=C/c2ccc(Cc3cccnc3)cc2)C(c2cccc([N+](=O)[O-])c2)C(C(=O)OC(C)C)=C(C)N1` (stereo not drawn) [compound 1] the Effect ratio [1] was 238, the inhibition in vivo at 10 mg/kg [2] was 52.3% and the MDA production-inhibition [3] was 59.4%.
In the case of `COC(=O)C1=C(C)NC(C)=C(C(=O)OCCN(C)C/C(C)=C/c2ccc(Cc3cccnc3)cc2)C1c1cccc([N+](=O)[O-])c1` (stereo not drawn) [compound 2], the LD50 [6] is reported as ≥ 30 mg/kg, the inhibition in vivo at 10 mg/kg [2] is reported as 84.1% and the MDA production-inhibition [3] is reported as 63.2%.
With `CCOC(=O)C1=C(C)NC(C)=C(C(=O)OCCN(C)C/C(C)=C/c2ccc(Cc3cccnc3)cc2)C1c1cccc([N+](=O)[O-])c1` (stereo not drawn) [compound 4] the inhibition in vivo at 10 mg/kg [2] was 38.6% and the MDA production-inhibition [3] was 53.6%.
With `CC1=C(C(=O)OCCN(C)C/C(C)=C/c2ccc(Cc3cccnc3)cc2)C(c2cccc(Cl)c2Cl)C(C(=O)OC(C)C)=C(C)N1` (stereo not drawn) [compound 5] the inhibition in vivo at 10 mg/kg [2] was 93.9% and the MDA production-inhibition [3] was 57.9%.
For `CC1=C(C(=O)OCCN(C)C/C(C)=C/c2ccc(Cc3cccnc3)cc2)C(c2ccccc2C(F)(F)F)C(C(=O)OC(C)C)=C(C)N1` (stereo not drawn) [compound 6], the inhibition in vivo at 10 mg/kg [2] was 87.9% and the MDA production-inhibition [3] was 60.6%.
In the case of `CC1=C(C(=O)OCCN(C)C/C=C/c2ccc(Cc3cccnc3)cc2)C(c2cccc([N+](=O)[O-])c2)C(C(=O)OC(C)C)=C(C)N1` (stereo not drawn) [compound 7], the LD50 [6] is reported as ≥ 30 mg/kg, the inhibition in vivo at 10 mg/kg [2] is reported as 36.4% and the MDA production-inhibition [3] is reported as 52.8%.
For `CC1=C(C(=O)OCCNC/C(C)=C/c2ccc(Cc3cccnc3)cc2)C(c2cccc([N+](=O)[O-])c2)C(C(=O)OC(C)C)=C(C)N1` (stereo not drawn) [compound 8], the LD50 [6] was ≥ 30 mg/kg, the inhibition in vivo at 10 mg/kg [2] was 47.9% and the MDA production-inhibition [3] was 64.9%.
With `CCOC(=O)C1=C(C)NC(C)=C(C(=O)OCCN(C)C/C(C)=C/c2ccc(Oc3cccnc3)cc2)C1c1cccc([N+](=O)[O-])c1` (stereo not drawn) [compound 10] the LD50 [6] was ≥ 30 mg/kg, the Effect ratio [1] was 641 and the inhibition in vivo at 10 mg/kg [2] was 79.2%.
For `CCOC(=O)C1=C(C)NC(C)=C(C(=O)OCCOC/C(C)=C/c2ccc(Cc3cccnc3)cc2)C1c1cccc([N+](=O)[O-])c1` (stereo not drawn) [compound 12], the LD50 [6] was ≥ 75 mg/kg, the Effect ratio [1] was 345 and the MDA production-inhibition [3] was 48.1%. The “ED50 (amount necessary for the amount of the effluent solution to increase 50%)” value [4] was 0.026 μg/i.c and the responders at 10 mg/kg [5, 7] was 77.8%.
In the case of `CCOC(=O)C1=C(C)NC(C)=C(C(=O)OCCOC/C=C/c2ccc(Cc3cccnc3)cc2)C1c1cccc([N+](=O)[O-])c1` (stereo not drawn) [compound 16], the LD50 [6] is reported as ≥ 75 mg/kg, the MDA production-inhibition [3] is reported as 31.6% and the “ED50 (amount necessary for the amount of the effluent solution to increase 50%)” value [4] is reported as 0.0105 μg/i.c.
For `COC(=O)C1=C(C)NC(C)=C(C(=O)OCCOC/C(C)=C/c2ccc(Cc3cccnc3)cc2)C1c1cccc([N+](=O)[O-])c1` (stereo not drawn) [compound 17], the LD50 [6] was ≥ 75 mg/kg, the MDA production-inhibition [3] was 58.6% and the “ED50 (amount necessary for the amount of the effluent solution to increase 50%)” value [4] was 0.012 μg/i.c. It also gave a responders at 10 mg/kg [5, 7] of 100%.
With `CCOC(=O)C1=C(C)NC(C)=C(C(=O)OCCOC/C(C)=C/c2ccc(Oc3cccnc3)cc2)C1c1cccc([N+](=O)[O-])c1` (stereo not drawn) [compound 19] the LD50 [6] was ≥ 75 mg/kg, the Effect ratio [1] was 550 and the “ED50 (amount necessary for the amount of the effluent solution to increase 50%)” value [4] was 0.017 μg/i.c. For the same compound, the responders at 10 mg/kg [5, 7] was 77.8%.
For `CCOC(=O)C1=C(C)NC(C)=C(C(=O)OCCOC/C(C)=C/c2ccc(Cc3cccnc3)s2)C1c1cccc([N+](=O)[O-])c1` (stereo not drawn) [compound 21], the LD50 [6] was ≥ 75 mg/kg and the responders at 10 mg/kg [5, 7] was 80%.
For `CCOC(=O)C1=C(C)NC(C)=C(C(=O)OCCCCOC/C(C)=C/c2ccc(Cc3cccnc3)cc2)C1c1cccc([N+](=O)[O-])c1` (stereo not drawn) [compound 30], the LD50 [6] was ≥ 50 mg/kg and the Effect ratio [1] was 397.
